Assay: Determination of bio-accumulation: urinary clearance pharmacokinetic study in rats
Assay type: in vivo, male Sprague Dawley rats
Details: 73 micro Moles per kg body weight, oral gavage; for T½ (renal half-life): exponential least squares curve fitting of urine concentration (fluorine NMR); for % Recovery (96 h): parent compound in urine up to 96 h; for Compound-related Effects: clinical signs, gross necropsy at 96 hours post-dose
Text: Animals we observed throughout the study for clinical signs of toxicity.

SMILES | T½ (renal half-life) | % Recovery (96 h) | Compound-related Effects
N.O=C(O)C(F)(F)C(F)(F)OC(F)(F)F [Compound 1, CF3—O—CF2—CF2—COONH4] | 11 h | 100% | 
N.O=C(O)C(F)(F)C(F)(F)OC(F)(F)C(F)(F)F [Compound 2, C2F5—O—CF2—CF2—COONH4] | 10 h | 100% | 
N.O=C(O)C(F)(F)C(F)(F)OC(F)(F)C(F)(F)C(F)(F)F [Compound 3, C3F7—O—CF2—CF2—COONH4] | 12 h | 82% | 
N.O=C(O)C(F)(F)C(F)(F)OC(F)(F)C(F)(F)C(F)(F)C(F)(F)F [Compound 4, C4F9—O—CF2—CF2—COONH4] | 31 h | 42% | Hepatomegaly
N.O=C(O)C(F)(F)C(F)(F)C(F)(F)C(F)(F)C(F)(F)C(F)(F)C(F)(F)F [Compound C-1, C7F15COONH4, reference compound] | ~550 h | 6% | Hepatomegaly

From US7776946B2, “Aqueous emulsion polymerization of fluorinated monomers using a fluorinated surfactant” (3M Innovative Properties Company, priority 2005, dated 2010)
